# From patent US8871767B2, “2-arylimidazo[1,2-B]pyridazine, 2-phenylimidazo[1,2-A]pyridine, and 2-phenylimidazo[1,2-A]pyrazine derivatives” (Hengrui (USA) Ltd., priority 2010, dated 2014)
# Like-named read-outs stand apart in the source and are kept apart here.
# Key:
# [1] = test system: Hedgehog pathway activation on 10T1/2/Smo#3 cells (C3H10T1/2 cells transfected with human Smoothened receptor); test: Hedgehog pathway activation on 10T1/2/Smo#3 cells measured by ALP activity; format: cell-based; settings: Mus musculus, C3H 10T1/2, 10T1/2/Smo#3 cells
# Summary of the method: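 Inhibition of alkaline phosphatase induction, read fluorometrically from 4-methylumbelliferyl phosphate conversion, gave IC50 values; CellTiter-Blue tracked viability in parallel. Cells were the human Smo-transfected 10T1/2/Smo#3 pool, stimulated by 10-20% hShh conditioned medium or the Smo agonist SAG (500 nM).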
# [2] = test system: Hedgehog pathway activation (GLi-luciferase reporter) in Shh Light II reporter cells; test: Hedgehog pathway activation on Shh Light II reporter cells measured by luciferase activity; format: cell-based; settings: Mus musculus, Shh Light II
# Summary of the method: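 Shh Light II reporter cells carrying a hedgehog-responsive GLi-luciferase reporter were stimulated either with 500 nM SAG, a direct Smoothened agonist, or with conditioned media containing human Sonic Hedgehog (hShh). Test compounds were evaluated for blocking this pathway activation, quantified by luciferase activity. Cell viability was monitored in parallel with the Celltiter-Blue® assay.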
# [3] = measured by ALP activity, read-out: ALP (IC50, inhibition of Hedgehog pathway activation)
# [4] = hShh activation, read-out: Shh (IC50, inhibition of Hedgehog pathway activation)
# [5] = hShh activation, ALP activity, read-out: 10T1/2/Smo#3 ALP activity (hShh Activation)
# [6] = SAG activation (500 nM SAG), read-out: Shh Light II luciferase activity (SAG activation)
# [7] = hShh activation, read-out: Shh Light II luciferase activity (hShh activation)
SMILES,"IC50 [1, 3] [nM]","IC50 [2, 4] [nM]","IC50 [1, 5] [nM]","IC50 [2, 6] [nM]","IC50 [2, 7] [nM]"
"Fc1ccc(CN2CCN(c3ccc4nc(-c5ccccc5)c(Cl)n4n3)CC2)cc1 [Example 144, 3-chloro-6-(4-(4-fluorobenzyl)piperazin-1-yl)-2-phenylimidazo[1,2-b]pyridazine]",3970,> 10000,3000 to 30000,3000 to 30000,3000 to 30000
"Cc1c(-c2ccccc2)nc2ccc(N3CCNCC3)nn12 [Example 145, 3-methyl-2-phenyl-6-(piperazin-1-yl)imidazo[1,2-b]pyridazine]",4780,5440,3000 to 30000,3000 to 30000,3000 to 30000
"Fc1ccc(CN2CCN(c3ccc4nc(-c5ccc(F)cc5)c(Br)n4n3)CC2)cc1 [Example 146, 3-bromo-6-(4-(4-fluorobenzyl)piperazin-1-yl)-2-(4-fluorophenyl)imidazo[1,2-b]pyridazine]",6980,> 10000,–,–,–
"Cc1c(-c2ccccc2)nc2ccc(N3CCN(C(=O)c4ccccc4)CC3)nn12 [Example 154, (4-(3-methyl-2-phenylimidazo[1,2-b]pyridazin-6-yl)piperazin-1-yl)(phenyl)methanone]",2890,3400,–,–,–
"Cc1c(-c2ccccc2)nc2ccc(N3CCN(C(=O)Cc4ccccc4)CC3)nn12 [Example 155, 1-(4-(3-methyl-2-phenylimidazo[1,2-b]pyridazin-6-yl)piperazin-1-yl)-2-phenylethanone]",1270,2100,300 to 3000,< 300,300 to 3000
"Cc1c(-c2ccccc2)nc2ccc(N3CCN(C(=O)CCc4ccccc4)CC3)nn12 [Example 156, 1-(4-(3-methyl-2-phenylimidazo[1,2-b]pyridazin-6-yl)piperazin-1-yl)-3-phenylpropan-1-one]",8840,3430,–,–,–
"Cc1c(-c2ccccc2)nc2ccc(N3CCN(C(=O)NC4CCCCC4)CC3)nn12 [Example 159, N-cyclohexyl-4-(3-methyl-2-phenylimidazo[1,2-b]pyridazin-6-yl)piperazine-1-carboxamide]",435,440,–,–,–
"Cc1c(-c2ccccc2)nc2ccc(N3CCN(Cc4ccccn4)CC3)nn12 [Example 160, 3-methyl-2-phenyl-6-(4-(pyridin-2-ylmethyl)piperazin-1-yl)imidazo[1,2-b]pyridazine]",627,2510,–,–,–
"Cc1c(-c2ccccc2)nc2ccc(N3CCN(Cc4cccnc4)CC3)nn12 [Example 161, 3-methyl-2-phenyl-6-(4-(pyridin-3-ylmethyl)piperazin-1-yl)imidazo[1,2-b]pyridazine]",404,911,300 to 3000,300 to 3000,300 to 3000
"Cc1c(-c2ccccc2)nc2ccc(N3CCN(Cc4ccncc4)CC3)nn12 [Example 162, 3-methyl-2-phenyl-6-(4-(pyridin-4-ylmethyl)piperazin-1-yl)imidazo[1,2-b]pyridazine]",1110,1400,–,–,–
"Cc1ccccc1CN1CCN(c2ccc3nc(-c4ccccc4)c(C)n3n2)CC1 [Example 163, 3-methyl-6-(4-(2-methylbenzyl)piperazin-1-yl)-2-phenylimidazo[1,2-b]pyridazine]",1050,1060,–,–,–
"Cc1c(-c2ccccc2)nc2ccc(N3CCN(Cc4ccc(F)cc4F)CC3)nn12 [Example 164, 6-(4-(2,4-difluorobenzyl)piperazin-1-yl)-3-methyl-2-phenylimidazo[1,2-b]pyridazine]",550,463,–,–,–
"Cc1c(-c2ccccc2)nc2ccc(N3CCN(Cc4ccc(OC(F)(F)F)cc4)CC3)nn12 [Example 166, 3-methyl-2-phenyl-6-(4-(4-(trifluoromethoxy)benzyl)piperazin-1-yl)imidazo[1,2-b]pyridazine]",1970,995,–,–,–
"Fc1ccc(CN2CCN(c3ccc4nc(-c5ccc(F)cc5)c(C5CC5)n4n3)CC2)cc1 [Example 167, 3-cyclopropyl-6-(4-(4-fluorobenzyl)piperazin-1-yl)-2-(4-fluorophenyl)imidazo[1,2-b]pyridazine]",> 10000,2270,–,–,–
"Cc1c(-c2ccccc2)nc2ccc(NC3CCN(Cc4ccccc4)CC3)nn12 [Example 168, N-(1-benzylpiperidin-4-yl)-3-methyl-2-phenylimidazo[1,2-b]pyridazin-6-amine]",2980,1920,300 to 3000,300 to 3000,300 to 3000

# Second part, the compound after the results:
"IC50 [1, 3] [nM]","IC50 [2, 4] [nM]","IC50 [1, 5] [nM]","IC50 [2, 6] [nM]","IC50 [2, 7] [nM]",SMILES
365,1410,–,–,–,"Cc1ccc2nc(-c3ccc(C(F)(F)F)c(NC(=O)C(C)(C)C)c3)cn2n1 [Example 142, N-(5-(6-methylimidazo[1,2-b]pyridazin-2-yl)-2-(trifluoromethyl)phenyl)pivalamide]"
2690,466,–,–,–,"CC(C)(C)C(=O)Nc1cc(-c2cn3nc(-c4ccc(F)cc4)ccc3n2)ccc1C(F)(F)F [Example 143, N-(5-(6-(4-fluorophenyl)imidazo[1,2-b]pyridazin-2-yl)-2-(trifluoromethyl)phenyl)pivalamide]"
> 10000,1040,–,–,–,"COc1cccc(-c2ccc3nc(-c4ccc(C(F)(F)F)c(NC(=O)C(C)(C)C)c4)cn3n2)n1 [Example 147, N-(5-(6-(6-methoxypyridin-2-yl)imidazo[1,2-b]pyridazin-2-yl)-2-(trifluoromethyl)phenyl)pivalamide]"
1940,608,300 to 3000,300 to 3000,300 to 3000,"CC(C)(C)C(=O)Nc1cc(-c2cn3nc(-c4nccs4)ccc3n2)ccc1C(F)(F)F [Example 148, N-(5-(6-(thiazol-2-yl)imidazo[1,2-b]pyridazin-2-yl)-2-(trifluoromethyl)phenyl)pivalamide]"
1750,1020,300 to 3000,300 to 3000,300 to 3000,"Cc1cccc(-c2ccc3nc(-c4ccc(C(F)(F)F)c(NC(=O)C(C)(C)C)c4)cn3n2)n1 [Example 149, N-(5-(6-(6-methylpyridin-2-yl)imidazo[1,2-b]pyridazin-2-yl)-2-(trifluoromethyl)phenyl)pivalamide]"
2740,1280,–,–,–,"Cc1ccc(-c2ccc3nc(-c4ccc(C(F)(F)F)c(NC(=O)C(C)(C)C)c4)cn3n2)nc1 [Example 150, N-(5-(6-(5-methylpyridin-2-yl)imidazo[1,2-b]pyridazin-2-yl)-2-(trifluoromethyl)phenyl)pivalamide]"
1810,899,–,–,–,"Cc1ccnc(-c2ccc3nc(-c4ccc(C(F)(F)F)c(NC(=O)C(C)(C)C)c4)cn3n2)c1 [Example 151, N-(5-(6-(4-methylpyridin-2-yl)imidazo[1,2-b]pyridazin-2-yl)-2-(trifluoromethyl)phenyl)pivalamide]"
590,314,–,–,–,"Cc1cccnc1-c1ccc2nc(-c3ccc(C(F)(F)F)c(NC(=O)C(C)(C)C)c3)cn2n1 [Example 152, N-(5-(6-(3-methylpyridin-2-yl)imidazo[1,2-b]pyridazin-2-yl)-2-(trifluoromethyl)phenyl)pivalamide]"
410,264,300 to 3000,300 to 3000,< 300,"CC(C)(C)C(=O)Nc1cc(-c2cn3nc(-c4cccnc4)ccc3n2)ccc1C(F)(F)F [Example 153, N-(5-(6-(pyridin-3-yl)imidazo[1,2-b]pyridazin-2-yl)-2-(trifluoromethyl)phenyl)pivalamide]"
> 10000,1950,–,–,–,"Cc1c(-c2ccccc2)nc2ccc(N3CCN(C(=O)CC(C)(C)C)CC3)nn12 [Example 157, 3,3-dimethyl-1-(4-(3-methyl-2-phenylimidazo[1,2-b]pyridazin-6-yl)piperazin-1-yl)butan-1-one]"
7340,847,3000 to 30000,300 to 3000,3000 to 30000,"Cc1c(-c2ccccc2)nc2ccc(N3CCN(C(=O)OC(C)(C)C)CC3)nn12 [Example 158, tert-butyl 4-(3-methyl-2-phenylimidazo[1,2-b]pyridazin-6-yl)piperazine-1-carboxylate]"
> 10000,890,–,–,–,"Cc1c(-c2ccccc2)nc2ccc(N3CCN(Cc4cccc(C(F)(F)F)c4)CC3)nn12 [Example 165, 3-methyl-2-phenyl-6-(4-(3-(trifluoromethyl)benzyl)piperazin-1-yl)imidazo[1,2-b]pyridazine]"
423,710,–,–,–,"CC(C)(C)C(=O)Nc1cc(-c2cn3nc(-c4ccncc4)ccc3n2)ccc1C(F)(F)F [Example 169, N-(5-(6-(pyridin-4-yl)imidazo[1,2-b]pyridazin-2-yl)-2-(trifluoromethyl)phenyl)pivalamide]"
681,562,–,–,–,"COc1ccc(-c2ccc3nc(-c4ccc(C(F)(F)F)c(NC(=O)C(C)(C)C)c4)cn3n2)cn1 [Example 170, N-(5-(6-(6-methoxypyridin-3-yl)imidazo[1,2-b]pyridazin-2-yl)-2-(trifluoromethyl)phenyl)pivalamide]"
221,41,–,–,–,"CC(C)(C)C(=O)Nc1cc(-c2cn3nc(-c4ccccc4F)ccc3n2)ccc1C(F)(F)F [Example 171, N-(5-(6-(2-fluorophenyl)imidazo[1,2-b]pyridazin-2-yl)-2-(trifluoromethyl)phenyl)pivalamide]"
